How the values were obtained:
Hes1 = experiment: RT-PCR / qRT-PCR of Notch target Hes1 mRNA in neurosphere cultures after DAPT; format: cell-based, human; conditions: for decrease of Hes1 mRNA level: 48 hours after treatment, RT-PCR; for Hes1 expression (qRT-PCR): 1 μM DAPT, 48 hours
Experimental: TMZ concentrations for each culture were selected based on previous experiments (Mihaliak et al., Cancer Letts. 296, 168-177 (2010)) DAPT and LY concentrations were chosen for each culture based on the decrease in Hes1 and Hey1 expression. RNA was isolated from the cultures 48 hours after DAPT treatment, and Hes1 and Hey1 cDNA expression levels were analyzed by PCR or qPCR.
RT-PCR and RT-qPCR were performed as follows. Neurosphere cultures were pelleted and tumor tissues from subcutaneous xenografts were broken into a powder using a BioPulverizer (Biospec Products, Inc., Bartlesville, Okla.). RNA was isolated from neurosphere cultures and frozen tumor samples using TRIzol Reagent (Invitrogen, Carlsbad, Calif.), following the manufacturer's protocol. RNA was treated with DNase I, Amplification Grade (Invitrogen, Carlsbad, Calif.). cDNA was made using the SuperScript II Reverse Transcription (RT) Kit with Oligo(dT)12-18 primers (Invitrogen, Carlsbad, Calif.), followed by a 20 minute incubation at 37° C. with RNaseH. PCR was carried out using Taq DNA Polymerase, following the manufacturer's protocol (Invitrogen, Carlsbad, Calif.). Real time qPCR was carried out using QuantiTect SYBR Green (QIAGEN, Valencia, Calif.). Hes1 and β-Actin primers were developed using Primer3 (Rozen and Skaletsky, Methods Mol Biol 2000; 132: 365-86). Hes1 forward primer: 5″ […] 3″ (SEQ ID NO:1) and reverse primer: 5″ […] 3″ (SEQ ID NO:2). β-Actin (RT-PCR) forward primer: 5″[…] 3″ (SEQ ID NO:3) and reverse primer: 5″ […] 3″ (SEQ ID NO:4). β-Actin (qRT-PCR) forward primer: 5″[…] 3″ (SEQ ID NO:5) and reverse primer: 5″ […] (SEQ ID NO:6). Primers for Hey1 (Osipo et al., Oncogene 2008; 27: 5019-32), Notch1 (Lefort et al., Genes Dev 2007; 21: 562-77), Notch2 (O'Neill et al., Am J Pathol 2007; 171: 1023-36), Notch3 (Buchler et al., Ann Surg 2005; 242: 791-800, discussion −1) and Notch4 (Buchler et al., Ann Surg 2005; 242: 791-800, discussion −1) were previously published, RT-PCR products were analyzed on 2% agarose gels. tantification of band intensity for DAPT treated lines was determined using ImageJ (Rasband W S. ImageJ, U.S. National Institutes of Health, Bethesda, Md., USA. 1997-2004). cDNA levels for qRT-PCR products were calculated using the PFAFFL method (Pfaffl, Nucleic Acids Res 2001; 29: e45).

U87NS-NICD = experiment: Neurosphere recovery assay, U87NS-NICD (constitutive Notch1 intracellular domain); format: cell-based, human
Experimental: (§1) Neurosphere cultures were dissociated to single cell suspensions by pH dissociation followed by filtration through 40 μm screens. For the neurosphere assay, 3,000 cells/ml of defined medium were seeded in 6-well plates. Immediately after plating, cells were treated with DMSO (Research Organics, Cleveland, Ohio) carrier control, TMZ-only, DAPT-only, or TMZ+DAPT. Additional DAPT was added on days 2 and 4. Neurospheres consisting of 10 or more cells were counted under a light microscope on day 7 for the converted cell lines. Primary lines have a slightly longer doubling time and were counted on day 10. After counting the neurospheres from the initial treatment, 2 ml of fresh defined medium was added to each well. DAPT was also added once more to the DAPT-only and TMZ+DAPT samples, and the cells were incubated for an additional 7 or 10 days. Neurospheres from the recovery period were counted on day 14 or day 20. To analyze secondary neurosphere formation, cells were collected, pelleted and dissociated to a single cell suspension by the pH method. Cells from each well were re-seeded into 6-well plates with 2 ml of defined medium. The number of secondary neurospheres formed by converted cell lines and primary cultures were counted on day 21 or day 30, respectively. All recovery assays were repeated with a minimum of 6 replicate sets of time points. […]

GS7-2-NICD = experiment: Neurosphere recovery assay, GS7-2-NICD; format: cell-based, human; conditions: constitutive NICD
Experimental: as §1

U87NS xenografts = experiment: In vivo treatment of pre-existing subcutaneous U87NS xenografts; set-up: species or system nude mice
Experimental: We tested the effect of in vivo TMZ+GSI treatments on pre-existing subcutaneous glioma xenografts. […] When the tumor reached approximately 150 mm^3 (volume=([…])(π)(length/2)(width/2)^2), we began the following treatments: 1) DMSO control: two days of 100 μl DMSO/PBS (1:1) intraperitoneal (i.p.) injections; 2) TMZ-only: injections of TMZ (20 mg/kg) in 100 μl DMSO/PBS on days one and two; 3) LY chow-only: two days of 100 μl DMSO/PBS i.p. injections. […] The mice were fed LY chow from day 3 to 12.

[1] = in vivo; cited from earlier work
[2] = Toxicity by body weight during drug administration
Experimental: Tolerance of the drug treatments was determined by measuring the weight of the mice during the period of drug administration.
During drug administration, toxicity was determined by weight loss.

Row | SMILES | decrease of Hes1 mRNA level (Hes1; U87NS, DAPT 1 μM) [%] | Hes1 expression (qRT-PCR) (Hes1; U87NS-NICD) | Hes1 expression (qRT-PCR) (Hes1; U87NS-pMIG) | decrease of Hes1 mRNA level (Hes1; U373NS, DAPT 5 μM) [%] | recovery: increase in neurospheres (U87NS-NICD) [fold] | recovery: increase in neurospheres (GS7-2-NICD) [fold] | mice / xenografts with tumor progression (tumor volume doubled) (U87NS xenografts; TMZ 20 mg/kg i.p. days 1-2, LY chow day 3 to 12) | average time until tumor volume doubled (progression) (U87NS xenografts; after treatment, progressing mice only) [days] | mice that succumbed to progression (U87NS xenografts; in vivo TMZ treatment) [%] | concentration of TMZ in the cerebral spinal fluid [1] | body weight, initially after TMZ injections [2] | body weight, remainder of treatment / final weight [2]
1 | C[C@H](NC(=O)Cc1cc(F)cc(F)c1)C(=O)N[C@H](C(=O)OC(C)(C)C)c1ccccc1 [DAPT, N-[N-(3,5-difluorophenacetyl)-L-alanyl]-(S)-phenylglycine t-butyl ester] | 72 | minimal decrease | decreased | 76 | – | – | – | – | – | – | – | –
2 | Cn1nnc2c(C(N)=O)ncn2c1=O [TMZ, temozolomide] | – | – | – | – | 2.3 | 2.6 | 8/8 | 23 ± 7 | 100 | about 5 μM | slight weight loss | no significant weight difference
